Counter-ions that a name gives are not always drawn. Like-named read-outs stand apart in the source and are kept apart here.
Experiments:
Bcl-xL-Beclin 1 complex [1] = target: T1, Bcl-xL-Beclin 1 complex (Homo sapiens, UniProt Q07817); assay: Concentration response FP reconfirmation of HTS hits; format: binding; conditions: for inhibition at 5 µM: read-out: Dose-response (% Inhibition) 5 μM; for inhibition at 10 µM: read-out: Dose-response (% Inhibition) 10 μM; for inhibition at 20 µM: read-out: Dose-response (% Inhibition) 20 μM; for inhibition at 40 µM: read-out: Dose-response (% Inhibition) 40 μM; for inhibition at 80 µM: read-out: Dose-response (% Inhibition) 80 μM; for inhibition at 160 µM: read-out: Dose-response (% Inhibition) 160 μM
T1 construct: made in house
T1 sequence (Q07817 whole entry, one chain of several): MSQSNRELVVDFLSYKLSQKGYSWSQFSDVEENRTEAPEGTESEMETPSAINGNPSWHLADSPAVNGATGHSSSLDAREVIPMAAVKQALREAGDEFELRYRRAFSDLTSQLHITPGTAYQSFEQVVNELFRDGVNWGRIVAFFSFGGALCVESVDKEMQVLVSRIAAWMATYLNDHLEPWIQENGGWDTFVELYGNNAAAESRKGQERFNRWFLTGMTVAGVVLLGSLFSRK
Protocol: (§1) Then the plates were read by Envision (Perkin Elmer, Waltham, MA). […] The hits were selected from library stocks and reconfirmed in a concentration response FP assay (6 doses ranging from 5 μM to 160 μM or 8 doses ranging from 0.5 μM to 60 μM).

Bcl-xL-Beclin 1 complex [2] = target: T1, Bcl-xL-Beclin 1 complex; assay: FP-based high-throughput screening, primary screen; format: binding; conditions: first screen; 40 μM compound, 2.5 μM Bcl-xL, 400 nM 20-mer
Excerpt: Next, we optimized the FP competitive binding assay in a 384-well microplate format and carried out a small-scale HTS using a small library, which contains 6580 compounds from Prestwick, Microsource and our in-house CMLD library. Then, the FP assay was optimized and applied in screening the larger Chembridge library consisting of 43736 compounds. HTS cascades are shown in Supplementary Figure 1A–1B. […] All chemical structures can be found on the PubChem website (http://pubchem.ncbi.nlm.nih.gov/).
as §1

| inhibition at 5 µM (Bcl-xL-Beclin 1 complex [1]; 5 μM, hits of first screen) | inhibition at 10 µM (Bcl-xL-Beclin 1 complex [1]; 10 μM, hits of first screen) | inhibition at 20 µM (Bcl-xL-Beclin 1 complex [1]; 20 μM, hits of first screen) | inhibition at 40 µM (Bcl-xL-Beclin 1 complex [1]; 40 μM, hits of first screen) | inhibition at 80 µM (Bcl-xL-Beclin 1 complex [1]; 80 μM, hits of first screen) | inhibition at 160 µM (Bcl-xL-Beclin 1 complex [1]; 160 μM, hits of first screen) | Primary Screen mP (Bcl-xL-Beclin 1 complex [2]) | inhibition at 40 µM (Bcl-xL-Beclin 1 complex [2]) | SMILES | inhibition at 5 µM (Bcl-xL-Beclin 1 complex [1]) | inhibition at 10 µM (Bcl-xL-Beclin 1 complex [1]) | inhibition at 20 µM (Bcl-xL-Beclin 1 complex [1]) | inhibition at 40 µM (Bcl-xL-Beclin 1 complex [1]) | inhibition at 80 µM (Bcl-xL-Beclin 1 complex [1]) | inhibition at 160 µM (Bcl-xL-Beclin 1 complex [1]) |
| --- | --- | --- | --- | --- | --- | --- | --- | --- | --- | --- | --- | --- | --- | --- |
| 8% | 16.9% | 23% | 35.7% | 57.8% | 74.8% | 96.0 mP | 31% | O=C1C=C2CC3(O)COc4cc(O)ccc4C3=C2C=C1O (centres unmarked) [Compound A01, BRAZILEIN] |  |  |  |  |  |  |
| 2.5% | 3.3% | 3.6% | 7.5% | 18.1% | 22% | 124.0 mP | 11.8% | CC(C)=CCCC1(C)C=Cc2c(O)c3c(c(CC=C(C)C)c2O1)OC12C(=CCCC1C(C)(C)O[C@@]2(C/C=C(\C)C(=O)O)C(=O)O)C3=O (some centres unmarked) [Compound A02, GARCINOLIC ACID] |  |  |  |  |  |  |
| -1.2% | 1.4% | 4.8% | 4.9% | 8.7% | 19.7% | 126.4 mP | 9.62% | O=C1c2cccc(O)c2C(=O)c2c(O)cccc21 [Compound A03, DANTHRON] |  |  |  |  |  |  |
| 1.4% | 2.3% | 2% | 3.2% | 10.2% | 13.7% | 129.2 mP | 7.13% | CCCCCc1c2c(cc(O)c1C(=O)O)OC(=O)c1c(cc(OC)cc1C(=O)CCCC)O2 [Compound A04, LOBARIC ACID] |  |  |  |  |  |  |
| -7.3% | -3.8% | -1% | 2.6% | 15.4% | 24.4% | 121.5 mP | 9.56% | CCCCC(CC)CCC(CC(C)C)OS(=O)(=O)O (centres unmarked) [Compound A06, SODIUM TETRADECYL SULFATE] |  |  |  |  |  |  |
| 1.9% | 3.7% | 5.8% | 6.6% | 21.2% | 22.7% | 123.0 mP | 11.7% | CN(C)c1ccc(C(=C2C=CC(=[N+](C)C)C=C2)c2ccc(N(C)C)cc2)cc1 [Compound A08, GENTIAN VIOLET] |  |  |  |  |  |  |
| -3.4% | 2.3% | 0.2% | -0.1% | -0.4% | 8.8% | 128.0 mP | 8.47% | COC(=O)Nc1nc2ccc(Sc3ccccc3)cc2[nH]1 [Compound A10, FENBENDAZOLE] |  |  |  |  |  |  |

| SMILES | inhibition at 5 µM (Bcl-xL-Beclin 1 complex [1]; 5 μM, hits of first screen) | inhibition at 10 µM (Bcl-xL-Beclin 1 complex [1]; 10 μM, hits of first screen) | inhibition at 20 µM (Bcl-xL-Beclin 1 complex [1]; 20 μM, hits of first screen) | inhibition at 40 µM (Bcl-xL-Beclin 1 complex [1]; 40 μM, hits of first screen) | inhibition at 80 µM (Bcl-xL-Beclin 1 complex [1]; 80 μM, hits of first screen) | inhibition at 160 µM (Bcl-xL-Beclin 1 complex [1]; 160 μM, hits of first screen) | Primary Screen mP (Bcl-xL-Beclin 1 complex [2]) | inhibition at 40 µM (Bcl-xL-Beclin 1 complex [2]) | inhibition at 5 µM (Bcl-xL-Beclin 1 complex [1]) | inhibition at 10 µM (Bcl-xL-Beclin 1 complex [1]) | inhibition at 20 µM (Bcl-xL-Beclin 1 complex [1]) | inhibition at 40 µM (Bcl-xL-Beclin 1 complex [1]) | inhibition at 80 µM (Bcl-xL-Beclin 1 complex [1]) | inhibition at 160 µM (Bcl-xL-Beclin 1 complex [1]) |
| --- | --- | --- | --- | --- | --- | --- | --- | --- | --- | --- | --- | --- | --- | --- |
| C[n+]1cc2c3c(ccc2c2ccc4cc5c(cc4c21)OCO5)OCO3 [Compound A05, SANGUINARINE SULFATE] |  |  |  |  |  |  | 130.6 mP | 6.61% | -1.4% | -0.2% | 2% | 8.4% | 20.6% | 31.1% |
| COC(=O)CC[C@@H](C)[C@H]1CC[C@H]2[C@@H]3[C@H](O)C[C@@H]4C[C@H](O)CC[C@]4(C)[C@H]3C[C@H](O)[C@]12C [Compound A09, CHOLIC ACID, METHYL ESTER] | 1.6% | 1.5% | 1.7% | 4.2% | 9.3% | 13.2% | 127.0 mP | 9.59% |  |  |  |  |  |  |
| O=C1c2c(O)ccc(O)c2C(=O)c2c(NCCNCCO)ccc(NCCNCCO)c21 [Compound A11, MITOXANTRONE HYDROCHLORIDE] | -2.2% | 4.3% | 11.2% | 19.5% | 32.9% | 32.2% | 99.8 mP | 26.3% |  |  |  |  |  |  |
